Experimental data as given in patent US5202315A, “Cephalosporin compounds” (Lucky, Ltd., priority 1989, dated 1993).
≈ marks a conversion by molar mass, not a printed value.

Columns and labels:
Assay in all cases: Antibacterial activity, MIC
Format in all cases: cell-based
[1] = test system: Bacillus megaterium ATCC 9885; details: Priestia megaterium, ATCC9885; ATCC 9885; agar two-fold dilution, 37° C., 20 hours; read-out: MIC
Procedure: (§1) Also, the in vitro antibacterial activity was determined by the by a two-fold dilution method as described below:
(§2) That is, the two-fold serial dilutions of the compound were made dispersed in Muller-Hinton agar medium. 2 μl of standard test strain which had the 10^7 CFU per ml was inoculated on the medium, and was incubated at 37° C. for 20 hours.

[2] = test system: Escherichia coli ATCC 25922; details: ATCC25922, agar two-fold dilution, 37° C., 20 hours
Procedure: as §1, §2

[3] = test system: Acinetobacter calcoaceticus ATCC 15473; details: ATCC15473, ATCC 15473, agar two-fold dilution, 37° C., 20 hours, read-out: MIC
Procedure: as §1, §2

[4] = test system: Staphylococcus epidermidis ATCC 12228; details: ATCC12228, ATCC 12228, agar two-fold dilution, 37° C., 20 hours, read-out: MIC
Procedure: as §1, §2

[5] = test system: Klebsiella pneumoniae ATCC 10031; details: ATCC10031, ATCC 10031, agar two-fold dilution, 37° C., 20 hours, read-out: MIC
Procedure: as §1, §2

[6] = test system: Enterobacter aerogenes ATCC 29751; details: Klebsiella aerogenes, ATCC29751; ATCC 29751; agar two-fold dilution, 37° C., 20 hours; read-out: MIC
Procedure: as §1, §2

[7] = test system: Providencia rettgeri ATCC 9250; details: ATCC9250, agar two-fold dilution, 37° C., 20 hours
Procedure: as §1, §2

[8] = test system: Salmonella typhimurium ATCC 14028; details: Salmonella enterica; ATCC 14028; agar two-fold dilution, 37° C., 20 hours; read-out: MIC
Procedure: as §1, §2

[9] = test system: Serratia marcescens ATCC 27117; details: ATCC27117, ATCC 27117, agar two-fold dilution, 37° C., 20 hours, read-out: MIC
Procedure: as §1, §2

[10] = test system: Proteus vulgaris ATCC 6059; details: ATCC6059, ATCC 6059, agar two-fold dilution, 37° C., 20 hours, read-out: MIC
Procedure: as §1, §2

[11] = test system: Pseudomonas aeruginosa ATCC 25619; details: ATCC25619, ATCC 25619, agar two-fold dilution, 37° C., 20 hours, read-out: MIC
Procedure: as §1, §2

[12] = test system: Micrococcus luteus ATCC 9341; details: ATCC9341, ATCC 9341, agar two-fold dilution, 37° C., 20 hours, read-out: MIC
Procedure: as §1, §2

[13] = test system: Pseudomonas aeruginosa ATCC 27853; details: ATCC27853, ATCC 27853, agar two-fold dilution, 37° C., 20 hours, read-out: MIC
Procedure: as §1, §2

[14] = test system: Bacillus cereus ATCC 11778; details: ATCC11778, ATCC 11778, agar two-fold dilution, 37° C., 20 hours, read-out: MIC
Procedure: as §1, §2

[15] = test system: Enterobacter cloacae ATCC 27508; details: ATCC27508, ATCC 27508, agar two-fold dilution, 37° C., 20 hours, read-out: MIC
Procedure: as §1, §2

[16] = test system: Citrobacter freundii ATCC 8090; details: ATCC8090, ATCC 8090, agar two-fold dilution, 37° C., 20 hours, read-out: MIC
Procedure: as §1, §2

[17] = test system: Streptococcus faecalis ATCC 29212; details: Enterococcus faecalis, ATCC29212; ATCC 29212; agar two-fold dilution, 37° C., 20 hours; read-out: MIC
Procedure: as §1, §2

[18] = test system: Proteus mirabilis ATCC 25933; details: ATCC25933, ATCC 25933, agar two-fold dilution, 37° C., 20 hours, read-out: MIC
Procedure: as §1, §2

[19] = test system: Staphylococcus aureus ATCC 10537; details: ATCC10537, ATCC 10537, agar two-fold dilution, 37° C., 20 hours, read-out: MIC
Procedure: as §1, §2

[20] = test system: Pseudomonas aeruginosa ATCC 10145; details: ATCC10145, ATCC 10145, agar two-fold dilution, 37° C., 20 hours, read-out: MIC
Procedure: as §1, §2

[21] = test system: Shigella sonnei ATCC 11060; details: ATCC11060, ATCC 11060, agar two-fold dilution, 37° C., 20 hours, read-out: MIC
Procedure: as §1, §2

[22] = test system: Staphylococcus aureus ATCC 6538p; details: ATCC6538P, ATCC 6538p, agar two-fold dilution, 37° C., 20 hours, read-out: MIC
Procedure: as §1, §2

[23] = test system: Morganella morganii ATCC 8076h; details: ATCC8076H, agar two-fold dilution, 37° C., 20 hours
Procedure: as §1, §2

[24] = test system: Shigella flexneri ATCC 11836; details: ATCC11836, agar two-fold dilution, 37° C., 20 hours
Procedure: as §1, §2

[25] = test system: Escherichia coli ATCC 10536; details: ATCC10536, agar two-fold dilution, 37° C., 20 hours
Procedure: as §1, §2

Row | Structure (SMILES) | MIC [1] [µg/mL] | MIC [2] [µg/mL] | MIC [3] [µg/mL] | MIC [4] [µg/mL] | MIC [5] [µg/mL] | MIC [6] [µg/mL] | MIC [7] [µg/mL] | MIC [8] [µg/mL] | MIC [9] [µg/mL] | MIC [10] [µg/mL] | MIC [11] [µg/mL] | MIC [12] [µg/mL] | MIC [13] [µg/mL] | MIC [14] [µg/mL] | MIC [15] [µg/mL] | MIC [16] [µg/mL] | MIC [17] [µg/mL] | MIC [18] [µg/mL] | MIC [19] [µg/mL] | MIC [20] [µg/mL] | also measured
1 | CC(C)(O/N=C(\C(=O)NC1C(=O)N2C(C(=O)[O-])=C(CSc3nc(N)cc(N)[n+]3-c3ccccc3)CSC12)c1csc(N)n1)C(=O)O (stereo not shown) [Compound I-35] | 0.5 (≈ 0.729 µM) | 0.25 (≈ 0.365 µM) | 16 (≈ 23.3 µM) | 2 (≈ 2.92 µM) | 0.13 (≈ 0.19 µM) | 0.5 (≈ 0.729 µM) | 0.031 (≈ 0.0452 µM) | 0.5 (≈ 0.729 µM) | 0.5 (≈ 0.729 µM) | 0.13 (≈ 0.19 µM) | 2 (≈ 2.92 µM) | 0.25 (≈ 0.365 µM) | 2 (≈ 2.92 µM) | 16 (≈ 23.3 µM) | 0.063 (≈ 0.0919 µM) | 0.25 (≈ 0.365 µM) | > 128 | 0.25 (≈ 0.365 µM) | 2 (≈ 2.92 µM) | 4 (≈ 5.83 µM) | MIC [21]: 0.25 µg/mL (≈ 0.365 µM); MIC [22]: 4 µg/mL (≈ 5.83 µM); MIC [23]: ≤ 0.008 µg/mL; MIC [24]: 0.13 µg/mL (≈ 0.19 µM); MIC [25]: 0.25 µg/mL (≈ 0.365 µM)
2 | CCO/N=C(\C(=O)NC1C(=O)N2C(C(=O)[O-])=C(CSc3nc(N)cc(N)[n+]3CC)CSC12)c1nsc(N)n1 (stereo not shown) [Compound I-21] | 0.13 (≈ 0.224 µM) | 0.13 (≈ 0.224 µM) | 4 (≈ 6.89 µM) | 0.13 (≈ 0.224 µM) | 0.016 (≈ 0.0276 µM) | 0.5 (≈ 0.861 µM) | ≤ 0.008 | 0.5 (≈ 0.861 µM) | 0.25 (≈ 0.431 µM) | 1 (≈ 1.72 µM) | 1 (≈ 1.72 µM) | 0.016 (≈ 0.0276 µM) | 2 (≈ 3.44 µM) | 16 (≈ 27.6 µM) | 0.016 (≈ 0.0276 µM) | 0.13 (≈ 0.224 µM) | 16 (≈ 27.6 µM) | 1 (≈ 1.72 µM) | 0.25 (≈ 0.431 µM) | 4 (≈ 6.89 µM) | MIC [21]: 0.25 µg/mL (≈ 0.431 µM); MIC [22]: 0.5 µg/mL (≈ 0.861 µM); MIC [23]: 0.016 µg/mL (≈ 0.0276 µM); MIC [24]: 0.063 µg/mL (≈ 0.108 µM); MIC [25]: 0.13 µg/mL (≈ 0.224 µM)
3 | COc1cccc(OC)c1-[n+]1c(N)cc(N)nc1SCC1=C(C(=O)[O-])N2C(=O)C(NC(=O)/C(=N\OC(C)(C)C(=O)O)c3csc(N)n3)C2SC1 (stereo not shown) [Compound I-43] | 0.25 (≈ 0.335 µM) | 0.5 (≈ 0.67 µM) | 32 (≈ 42.9 µM) | 2 (≈ 2.68 µM) | 0.25 (≈ 0.335 µM) | 2 (≈ 2.68 µM) | 0.031 (≈ 0.0416 µM) | 2 (≈ 2.68 µM) | 2 (≈ 2.68 µM) | 0.5 (≈ 0.67 µM) | 4 (≈ 5.36 µM) | 0.25 (≈ 0.335 µM) | 4 (≈ 5.36 µM) | 32 (≈ 42.9 µM) | 0.25 (≈ 0.335 µM) | 1 (≈ 1.34 µM) | > 128 | 0.5 (≈ 0.67 µM) | 2 (≈ 2.68 µM) | 8 (≈ 10.7 µM) | MIC [21]: 0.5 µg/mL (≈ 0.67 µM); MIC [22]: 4 µg/mL (≈ 5.36 µM); MIC [23]: 0.031 µg/mL (≈ 0.0416 µM); MIC [24]: 0.25 µg/mL (≈ 0.335 µM); MIC [25]: 0.5 µg/mL (≈ 0.67 µM)
4 | C=CC[n+]1c(N)cc(N)nc1SCC1=C(C(=O)[O-])N2C(=O)C(NC(=O)/C(=N\OC(C)(C)C(=O)O)c3csc(N)n3)C2SC1 (stereo not shown) [Compound I-3] | 0.5 (≈ 0.77 µM) | 0.13 (≈ 0.2 µM) | 4 (≈ 6.16 µM) | 2 (≈ 3.08 µM) | 0.063 (≈ 0.097 µM) | 2 (≈ 3.08 µM) | ≤ 0.008 | 0.25 (≈ 0.385 µM) | 0.13 (≈ 0.2 µM) | 0.031 (≈ 0.0477 µM) | 1 (≈ 1.54 µM) | 0.25 (≈ 0.385 µM) | 2 (≈ 3.08 µM) | 64 (≈ 98.5 µM) | 0.031 (≈ 0.0477 µM) | 0.13 (≈ 0.2 µM) | > 128 | 0.031 (≈ 0.0477 µM) | 2 (≈ 3.08 µM) | 2 (≈ 3.08 µM) | MIC [21]: 0.063 µg/mL (≈ 0.097 µM); MIC [22]: 4 µg/mL (≈ 6.16 µM); MIC [23]: ≤ 0.008 µg/mL; MIC [24]: 0.031 µg/mL (≈ 0.0477 µM); MIC [25]: 0.13 µg/mL (≈ 0.2 µM)
